According to patent publication US9212180B2 (priority 2013, dated 2015):

Biological target: T1, menin-MLL interaction (Homo sapiens, UniProt O00255)
T1 sequence (O00255 1-610): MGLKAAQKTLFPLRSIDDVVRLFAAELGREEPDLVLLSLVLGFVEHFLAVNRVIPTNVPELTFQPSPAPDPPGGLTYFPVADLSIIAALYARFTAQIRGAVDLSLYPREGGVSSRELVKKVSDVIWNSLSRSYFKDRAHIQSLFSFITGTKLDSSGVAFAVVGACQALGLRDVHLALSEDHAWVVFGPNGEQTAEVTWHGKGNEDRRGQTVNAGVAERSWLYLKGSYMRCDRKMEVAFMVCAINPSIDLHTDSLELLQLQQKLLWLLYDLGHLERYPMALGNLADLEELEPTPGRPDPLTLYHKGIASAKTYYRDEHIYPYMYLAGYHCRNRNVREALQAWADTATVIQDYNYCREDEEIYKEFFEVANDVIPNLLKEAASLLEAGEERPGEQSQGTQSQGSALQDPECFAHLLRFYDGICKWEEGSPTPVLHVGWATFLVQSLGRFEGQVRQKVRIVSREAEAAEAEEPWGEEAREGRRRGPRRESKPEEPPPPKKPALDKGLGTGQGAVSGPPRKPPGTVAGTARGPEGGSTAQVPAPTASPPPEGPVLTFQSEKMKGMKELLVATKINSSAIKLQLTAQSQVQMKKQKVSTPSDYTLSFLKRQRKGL
Assay: biochemical
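Further: fluorescence polarization competition assay, inhibitors lower the fluorescence anisotropy signal, IC50 taken from this drop.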

Procedure: Fluorescence Polarization Assay.
Compounds that inhibit the interaction decrease the fluorescence anisotropy which is being used as a read-out for compound screening and for IC50 determination. For validation of the FP assay, a control competition experiment with unlabeled MLL peptide (no fluorescein attached) was performed.

Row | SMILES | IC50
1 | COC(c1ccccc1)(C1CCCC1)C1CCN(CCCOc2ccc(C#N)cc2)CC1 (stereo not drawn) [Compound B62] | 0.743 µM
2 | N#Cc1ccc(OCCCN2CCC(C(O)(c3cc(F)cc(F)c3)c3ccccn3)CC2)cc1 (stereo not drawn) [Compound B81] | 0.9 µM
3 | N#Cc1ccc(OCCCN2CCC(C(O)(c3ccccc3)C3CCCC3)CC2)cn1 (stereo not drawn) [Compound B61] | 8.94 µM
4 | COC(c1ccccc1)(c1ccccc1)C1CCN(CCCOc2ccc(C#N)cc2)CC1 [Compound B55] | 5.3 µM
5 | N#Cc1ccc(OC[C@@H](O)CN2CCC(C(O)(c3ccccc3)c3ccccc3)CC2)cc1F [Compound B51] | 15 µM
6 | OC(c1ccccc1)(c1ccccc1)C1CCN(CCCOc2ccc(OC(F)(F)F)cc2)CC1 [Compound B4] | 98 µM
7 | NS(=O)(=O)c1ccc(OCCCN2CCC(C(O)(c3ccccc3)c3ccccc3)CC2)cc1 [Compound B24] | 14.3 µM
8 | O=C(c1ccc(OCCCN2CCC(C(O)(c3ccccc3)C3CCCC3)CC2)cc1)C1CCCC1 (stereo not drawn) [Compound B26] | 3.95 µM
9 | OC(c1ccccc1)(c1ccccc1)C1CCN(CCCOc2ccc(C(F)(F)F)cc2)CC1 [Compound B3] | 52 µM
10 | N#Cc1ccc(OCCCN2CCC(C(O)(C3=CCCC3)c3ccccc3)CC2)cc1 (stereo not drawn) [Compound B32] | 2.08 µM
11 | COC(=O)c1ccc(OCCCN2CCC(C(O)(c3ccccc3)c3ccccc3)CC2)cc1 [Compound B16] | 86 µM
12 | N#Cc1ccc(OCCCN2CCC(C(O)(c3cccc(F)c3)c3nccs3)CC2)cc1 (stereo not drawn) [Compound B83] | 0.407 µM
13 | N#Cc1ccc(OCCCN2CCC(C(O)(Cc3ccccc3)C3=CCCC3)CC2)cc1 (stereo not drawn) [Compound B59] | 11.3 µM
14 | OC(c1ccccc1)(c1ccccc1)C1CCN(CCCOc2ccncc2)CC1 [Compound B37] | 25 µM
15 | N#CCc1ccc(OCCCN2CCC(C(O)(c3ccccc3)c3ccccc3)CC2)cc1 [Compound B40] | 17.4 µM
16 | OC(c1ccccc1)(c1ccccc1)C1CCN(CCCOc2ccc(-n3ccnn3)cc2)CC1 [Compound B10, (1-(3-(4-(1H-1,2,3-triazol-1-yl)phenoxy)propyl)piperidin-4-yl)diphenylmethanol] | 29 µM
17 | OC(c1ccccc1)(c1ccccc1)C1CCN(CCCOc2ccc(-c3cccnc3)cc2)CC1 [Compound B36] | 22.6 µM
18 | CS(=O)(=O)c1ccc(OC[C@@H](O)CN2CCC(C(O)(c3ccccc3)c3ccccc3)CC2)cc1 [Compound B45] | 21 µM
19 | N#Cc1ccc(OCCCN2CCC(C(O)(c3ccccn3)C3CCCC3)CC2)cn1 (stereo not drawn) [Compound B64] | 4.05 µM
20 | N#Cc1ccc(OCCCN2CCC(C(O)(C3CCCC3)C3CCCC3)CC2)cc1 [Compound B31] | 1.4 µM
21 | CC(COc1ccc(C#N)c(F)c1)CN1CCC(C(O)(c2ccccc2)c2ccccc2)CC1 (stereo not drawn) [Compound B49] | 70.8 µM
22 | CC(CCN1CCC(C(O)(c2ccccc2)c2ccccc2)CC1)Oc1ccc([N+](=O)[O-])cc1Cl (stereo not drawn) [Compound B52] | 55 µM
23 | N#Cc1ccc(OCCCN2CCC(C(O)(c3ccccc3)c3ccccc3)CC2)cc1F [Compound B6] | 26.5 µM
24 | COc1ccc(C(O)(C2CCCC2)C2CCN(CCCOc3ccc(C#N)cc3)CC2)cn1 (stereo not drawn) [Compound B57] | 75 µM
25 | N#Cc1ccc(OC[C@@H](O)CN2CCC(C(O)(c3ccccc3)C3CCCC3)CC2)cc1 (stereo partly drawn) [Compound B43] | 0.948 µM
26 | CCOC(c1ccccc1)(c1ccccc1)C1CCN(CCCOc2ccc(C#N)cc2)CC1 [Compound B54] | 5.3 µM

Row | SMILES | IC50
27 | [N-]=[N+]=Nc1ccc(OCCCN2CCC(C(O)(c3ccccc3)c3ccccc3)CC2)cc1 [Compound B14] | 58 µM
28 | OC(c1ccccc1)(c1ccccc1)C1CCN(CCCOc2ccc(Cl)cc2)CC1 [Compound B5] | 96 µM
29 | N#Cc1ccc(OCC(O)CN2CCC(C(O)(c3cccc(F)c3)c3ccccn3)CC2)cc1 (stereo not drawn) [Compound B86, 4-(3-(4-((3-Fluorophenyl)(hydroxy)(pyridin-2-yl)methyl)piperidin-1-yl)-2-hydroxypropoxy)benzonitrile] | 0.222 µM
30 | NCc1ccc(OCCCN2CCC(C(O)(C3=CCCC3)c3ccccc3)CC2)cc1 (stereo not drawn) [Compound B34] | 13.9 µM
31 | Oc1ccccc1-c1ccc(OCCCN2CCC(C(O)(c3ccccc3)c3ccccc3)CC2)cc1 [Compound B29] | 8.3 µM
32 | COc1cccc(C(O)(C2CCCC2)C2CCN(CCCOc3ccc(C#N)cc3)CC2)c1 (stereo not drawn) [Compound B68] | 1.1 µM
33 | N#Cc1ccc(OCCCN2CCC(C(O)(c3ccccc3)c3ccc(F)cc3)CC2)cc1 (stereo not drawn) [Compound B13] | 77.5 µM
34 | NCc1ccc(OCCCN2CCC([C@@](O)(c3ccccc3)C3CCCC3)CC2)cc1 [Compound B28] | 13.1 µM
35 | N#Cc1ccc(OC[C@@H](O)CN2CCC(C(O)(c3ccccc3)c3ccccc3)CC2)c(F)c1 [Compound B50] | 40 µM
36 | CC(=O)NCc1ccc(OCCCN2CCC(C(O)(c3ccccc3)c3ccccc3)CC2)cc1 [Compound B38] | 20.7 µM
37 | CN(C)S(=O)(=O)c1ccc(OCCCN2CCC(C(O)(c3ccccc3)c3ccccc3)CC2)cc1 [Compound B30] | 40 µM
38 | N#Cc1ccc(OCCCN2CCC(C(O)(c3ccccc3)C(F)(F)F)CC2)cc1 (stereo not drawn) [Compound B23] | 31 µM
39 | N#Cc1ccc(OC[C@H](O)CN2CCC(C(O)(c3ccccc3)C3CCCC3)CC2)cc1 (stereo partly drawn) [Compound B41] | 1.15 µM
40 | Cc1ccc(OC[C@@H](O)CN2CCC(C(O)(c3ccccc3)c3ccccc3)CC2)cc1 [Compound B46] | 100 µM
41 | CS(=O)(=O)c1ccc(OCCCN2CCC(C(O)(c3ccccc3)c3ccccc3)CC2)cc1 [Compound B33] | 58.5 µM
42 | O[C@H](COc1ccc(OC(F)(F)F)cc1)CN1CCC(C(O)(c2ccccc2)c2ccccc2)CC1 [Compound B48] | 31 µM
43 | OC(c1ccccc1)(c1ccccc1)C1CCN(CCCOc2ccc(-c3ccncc3)cc2)CC1 [Compound B35, Diphenyl(1-(3-(4-(pyridin-4-yl)phenoxy)propyl)piperidin-4-yl)methanol] | 30.6 µM
44 | N#Cc1ccc(NCCCN2CCC(C(O)(c3ccccc3)c3ccccc3)CC2)cc1 [Compound B42] | 9.56 µM
45 | NS(=O)(=O)c1ccc(OCCCN2CCC(C(O)(c3cccc(F)c3)c3nccs3)CC2)cc1 (stereo not drawn) [Compound B82] | 0.354 µM
46 | CS(=O)(=O)NCc1ccc(OCCCN2CCC(C(O)(c3ccccc3)c3ccccc3)CC2)cc1 [Compound B25] | 40 µM
47 | NCc1ccc(OCCCN2CCC([C@](O)(c3ccccc3)C3CCCC3)CC2)cc1 [Compound B27] | 13.9 µM
48 | O[C@H](COc1ccc(Cl)cc1)CN1CCC(C(O)(c2ccccc2)c2ccccc2)CC1 [Compound B47] | 40 µM
49 | CN(C)CCOC(c1ccccc1)(c1ccccc1)C1CCN(CCCOc2ccc(C#N)cc2)CC1 [Compound B56] | 4.2 µM
50 | N#Cc1ccc(OCCCN2CCC(C(O)(C3CCCC3)C3CCCCN3)CC2)cc1 (stereo not drawn) [Compound B63] | 28 µM
51 | OC(c1ccccc1)(c1ccccc1)C1CCN(CCCOc2ccc(-c3cncnc3)cc2)CC1 [Compound B39] | 83 µM
